Results as given in ChEMBL document CHEMBL1147043, “Comparative metabolism of radiolabeled muraglitazar in animals and humans by quantitative and qualitative metabolite profiling” (Drug Metab Dispos, 2007).

How the values were obtained:
Plasma [1] = experiment: Biodistribution in orally dosed Beagle dog plasma assessed as 12-hydroxy-O-demethyl muraglitazar level after 1 hr by LC/MS analysis; assay type: ADME, organism-based, Canis lupus familiaris; conditions: in vivo, po
[2] = Biodistribution in orally dosed cynomolgus monkey feces assessed as muraglitazar 12-carboxylic acid level by LC/MS analysis; assay type: ADME, organism-based, Macaca fascicularis; conditions: in vivo, po
[3] = Metabolic stability in cynomolgus monkey hepatocytes assessed as 12-hydroxy muraglitazar level by LC/MS analysis relative to control; assay type: ADME, cell-based, Macaca fascicularis, Hepatocyte
[4] = Biodistribution in orally dosed human urine assessed as muraglitazar glucuronide level by LC/MS analysis; assay type: ADME, organism-based; conditions: in vivo, po
[5] = Biodistribution in orally dosed human feces assessed as 9-hydroxy muraglitazar level by LC/MS analysis; assay type: ADME, organism-based; conditions: in vivo, po
[6] = Drug concentration in Beagle dog urine assessed as recovery of radioactive dose at 1.9 mg/kg, po after 168 hrs; assay type: ADME, organism-based, Canis lupus familiaris; design: dose 1.9 mg/kg, route oral; conditions: in vivo
Plasma [7] = experiment: Biodistribution in orally dosed cynomolgus monkey plasma assessed as 8-hydroxy-O-demethyl muraglitazar level after 4 hrs by LC/MS analysis; assay type: ADME, organism-based, Macaca fascicularis; conditions: in vivo, po
Plasma [8] = experiment: Biodistribution in orally dosed cynomolgus monkey plasma assessed as 12-dihydroxy muraglitazar level after 1 hr by LC/MS analysis; assay type: ADME, organism-based, Macaca fascicularis; conditions: in vivo, po
[9] = Drug concentration in bile duct-cannulated CD1 mouse urine assessed as recovery of radioactive dose at 40 mg/kg, po after 24 hrs; assay type: ADME, organism-based; design: dose 40 mg/kg, route oral; conditions: in vivo
Hepatocyte [10] = experiment: Metabolic stability in human hepatocytes assessed as 8-hydroxy-O-demethyl muraglitazar level by LC/MS analysis relative to control; assay type: ADME, cell-based
[11] = Half life in cynomolgus monkey at 1.9 mg/kg, po after 24 hrs; assay type: ADME, organism-based, Macaca fascicularis; design: dose 1.9 mg/kg, route oral; conditions: in vivo
Hepatocyte [12] = experiment: Metabolic stability in human hepatocytes assessed as 8-hydroxy muraglitazar level by LC/MS analysis relative to control; assay type: ADME, cell-based
Plasma [13] = experiment: Biodistribution in orally dosed Sprague-Dawley rat plasma assessed as 12-hydroxy-O-demethyl muraglitazar level after 12 hrs by LC/MS analysis; assay type: ADME, organism-based; conditions: in vivo, po
Plasma [14] = experiment: Biodistribution in orally dosed Sprague-Dawley rat plasma assessed as O-Dealkyl muraglitazar level after 12 hrs by LC/MS analysis; assay type: ADME, organism-based; conditions: in vivo, po
[15] = Biodistribution in orally dosed cynomolgus monkey urine assessed as 12,17-dihydroxy muraglitazar level by LC/MS analysis; assay type: ADME, organism-based, Macaca fascicularis; conditions: in vivo, po
[16] = Drug concentration in bile duct-cannulated cynomolgus monkey bile at 5 mg/kg, po after 48 hrs; assay type: ADME, organism-based, Macaca fascicularis; design: dose 5 mg/kg, route oral; conditions: in vivo
Plasma [17] = experiment: Biodistribution in orally dosed Sprague-Dawley rat plasma assessed as 17-dihydroxy muraglitazar level after 12 hrs by LC/MS analysis; assay type: ADME, organism-based; conditions: in vivo, po
Plasma [18] = experiment: Biodistribution in orally dosed cynomolgus monkey plasma assessed as O-Dealkyl muraglitazar level after 1 hr by LC/MS analysis; assay type: ADME, organism-based, Macaca fascicularis; conditions: in vivo, po
[19] = Biodistribution in orally dosed cynomolgus monkey urine assessed as 17-hydroxy-O-demethyl muraglitazar level by LC/MS analysis; assay type: ADME, organism-based, Macaca fascicularis; conditions: in vivo, po
[20] = Biodistribution in orally dosed cynomolgus monkey feces assessed as 8,12-dihydroxy muraglitazar level by LC/MS analysis; assay type: ADME, organism-based, Macaca fascicularis; conditions: in vivo, po
[21] = Biodistribution in orally dosed human feces assessed as 12,17-dihydroxy muraglitazar level by LC/MS analysis; assay type: ADME, organism-based; conditions: in vivo, po
Plasma [22] = experiment: Biodistribution in orally dosed Sprague-Dawley rat plasma assessed as muraglitazar 12-carboxylic acid level after 12 hrs by LC/MS analysis; assay type: ADME, organism-based; conditions: in vivo, po
Hepatocyte [23] = experiment: Metabolic stability in human hepatocytes assessed as O-demethyl muraglitazar level by LC/MS analysis relative to control; assay type: ADME, cell-based
[24] = Tmax in Beagle dog at 2 mg/kg, po after 4 hrs; assay type: ADME, organism-based, Canis lupus familiaris; design: dose 2 mg/kg, route oral; conditions: in vivo
[25] = Metabolic stability in cynomolgus monkey hepatocytes assessed as O-demethyl muraglitazar level by LC/MS analysis relative to control; assay type: ADME, cell-based, Macaca fascicularis, Hepatocyte
[26] = Biodistribution in orally dosed Beagle dog feces assessed as imide derivative of muraglitazar level by LC/MS analysis; assay type: ADME, organism-based, Canis lupus familiaris; conditions: in vivo, po
[27] = Fecal excretion rate in orally dosed Beagle dog within 48 hrs; assay type: ADME, organism-based, Canis lupus familiaris; conditions: faeces, po, read-out: Activity
[28] = Biodistribution in orally dosed Beagle dog feces assessed as 12-hydroxy muraglitazar level by LC/MS analysis; assay type: ADME, organism-based, Canis lupus familiaris; conditions: in vivo, po
Hepatocyte [29] = experiment: Metabolic stability in human hepatocytes assessed as O-demethyl muraglitazar glucuronide level by LC/MS analysis relative to control; assay type: ADME, cell-based
Plasma [30] = experiment: Biodistribution in orally dosed Beagle dog plasma assessed as 12-dihydroxy muraglitazar level after 1 hr by LC/MS analysis; assay type: ADME, organism-based, Canis lupus familiaris; conditions: in vivo, po
[31] = Drug concentration in human bile at 20 mg/kg, po after 48 hrs; assay type: ADME, organism-based; design: dose 20 mg/kg, route oral; conditions: in vivo
Hepatocyte [32] = experiment: Metabolic stability in human hepatocytes assessed as radioactivity recovaries at 25.6 ug/mL after 4 hrs; assay type: ADME, cell-based
[33] = Metabolic stability in cynomolgus monkey hepatocytes assessed as 17-hydroxy-O-demethyl muraglitazar level by LC/MS analysis relative to control; assay type: ADME, cell-based, Macaca fascicularis, Hepatocyte
Hepatocyte [34] = experiment: Metabolic stability in human hepatocytes assessed as O-Dealkyl muraglitazar level by LC/MS analysis relative to control; assay type: ADME, cell-based
[35] = Biodistribution in orally dosed cynomolgus monkey feces assessed as 8-hydroxy-O-demethyl muraglitazar level by LC/MS analysis; assay type: ADME, organism-based, Macaca fascicularis; conditions: in vivo, po
Plasma [36] = experiment: Biodistribution in orally dosed human plasma assessed as muraglitazar 12-carboxylic acid level after 4 hrs by LC/MS analysis; assay type: ADME, organism-based; conditions: in vivo, po
Plasma [37] = experiment: Biodistribution in orally dosed cynomolgus monkey plasma assessed as O-demethyl muraglitazar level after 4 hrs by LC/MS analysis; assay type: ADME, organism-based, Macaca fascicularis; conditions: in vivo, po
Plasma [38] = experiment: Biodistribution in orally dosed cynomolgus monkey plasma assessed as 12-dihydroxy muraglitazar level after 12 hrs by LC/MS analysis; assay type: ADME, organism-based, Macaca fascicularis; conditions: in vivo, po
[39] = Biodistribution in orally dosed Beagle dog feces assessed as O-dealkyl muraglitazar level by LC/MS analysis; assay type: ADME, organism-based, Canis lupus familiaris; conditions: in vivo, po
Plasma [40] = experiment: Biodistribution in orally dosed cynomolgus monkey plasma assessed as 17-dihydroxy muraglitazar level after 1 hr by LC/MS analysis; assay type: ADME, organism-based, Macaca fascicularis; conditions: in vivo, po
[41] = Biodistribution in orally dosed cynomolgus monkey feces assessed as 12,17-dihydroxy muraglitazar level by LC/MS analysis; assay type: ADME, organism-based, Macaca fascicularis; conditions: in vivo, po
[42] = Biodistribution in orally dosed human urine assessed as O-dealkyl-O-demethyl muraglitazar level by LC/MS analysis; assay type: ADME, organism-based; conditions: in vivo, po
Plasma [43] = experiment: Biodistribution in orally dosed Sprague-Dawley rat plasma assessed as […] muraglitazar level after 12 hrs by LC/MS analysis; assay type: ADME, organism-based; conditions: in vivo, po
[44] = Fecal excretion rate in orally dosed Sprague-Dawley rat within 48 hrs; assay type: ADME, organism-based; conditions: faeces, po, read-out: Activity

**Q.** For `COc1ccc(OC(=O)N(CC(=O)O)Cc2ccc(OCCc3nc(-c4ccccc4)oc3C)cc2)cc1` [MURAGLITAZAR], which Drug uptake (Plasma [1]) is on record?
**A.** The Drug uptake was 1%.

**Q.** What about the Drug uptake [2] of the same molecule?
**A.** The Drug uptake was 1.61%.

**Q.** What about the Drug uptake [3] of the same molecule?
**A.** The Drug uptake was 0.8%.

**Q.** And the Drug uptake [4]?
**A.** The Drug uptake was 1%.

**Q.** And the Drug uptake [5]?
**A.** The Drug uptake was 1.6%.

**Q.** What about the Drug uptake [6] of the same molecule?
**A.** The Drug uptake was 0.5%.

**Q.** What about the Drug uptake (Plasma [7]) of the same molecule?
**A.** Its Drug uptake is 0.1%.

**Q.** And the Drug uptake (Plasma [8])?
**A.** Its Drug uptake is 0.9%.

**Q.** And the Drug uptake [9]?
**A.** Its Drug uptake is 16.1%.

**Q.** What about the Drug uptake (Hepatocyte [10]) of the same molecule?
**A.** The Drug uptake was less than 0.2%.

**Q.** What about the half-life [11] of the same molecule?
**A.** The half-life was 1410 min.

**Q.** What about the Drug uptake (Hepatocyte [12]) of the same molecule?
**A.** The Drug uptake was less than 0.2%.

**Q.** And the Drug uptake (Plasma [13])?
**A.** The Drug uptake was less than 0.05%.

**Q.** What about the Drug uptake (Plasma [14]) of the same molecule?
**A.** Its Drug uptake is 0.05%.

**Q.** And the Drug uptake [15]?
**A.** Its Drug uptake is 0.13%.

**Q.** And the Drug uptake [16]?
**A.** Its Drug uptake is 0.007 mgequiv/ml.

**Q.** What about the Drug uptake (Plasma [17]) of the same molecule?
**A.** Its Drug uptake is less than 0.05%.

**Q.** What about the Drug uptake (Plasma [18]) of the same molecule?
**A.** The Drug uptake was 0.3%.

**Q.** And the Drug uptake [19]?
**A.** The Drug uptake was 0.01%.

**Q.** What about the Drug uptake [20] of the same molecule?
**A.** Its Drug uptake is 0.16%.

**Q.** And the Drug uptake [21]?
**A.** Its Drug uptake is 0.56%.

**Q.** And the Drug uptake (Plasma [22])?
**A.** Its Drug uptake is less than 0.05%.

**Q.** And the Drug uptake (Hepatocyte [23])?
**A.** Its Drug uptake is 2.3%.

**Q.** What about the Tmax [24] of the same molecule?
**A.** Its Tmax is 1 h.

**Q.** What about the Drug uptake [25] of the same molecule?
**A.** Its Drug uptake is 2.1%.

**Q.** What about the Drug uptake [26] of the same molecule?
**A.** Its Drug uptake is 0.89%.

**Q.** And the dose excreted at 48 h [27]?
**A.** Its dose excreted at 48 h is 95%.

**Q.** What about the Drug uptake [28] of the same molecule?
**A.** Its Drug uptake is 1.1%.

**Q.** What about the Drug uptake (Hepatocyte [29]) of the same molecule?
**A.** The Drug uptake was less than 0.2%.

**Q.** And the Drug uptake (Plasma [30])?
**A.** Its Drug uptake is 1%.

**Q.** And the Drug uptake [31]?
**A.** Its Drug uptake is 0.068 mgequiv/ml.

**Q.** What about the Stability (Hepatocyte [32]) of the same molecule?
**A.** Its Stability is 98.7%.

**Q.** What about the Drug uptake [33] of the same molecule?
**A.** The Drug uptake was 11%.

**Q.** What about the Drug uptake (Hepatocyte [34]) of the same molecule?
**A.** The Drug uptake was 5.7%.

**Q.** And the Drug uptake [35]?
**A.** The Drug uptake was 1.29%.

**Q.** And the Drug uptake (Plasma [36])?
**A.** Its Drug uptake is 0.2%.

**Q.** And the Drug uptake (Plasma [37])?
**A.** Its Drug uptake is 0.3%.

**Q.** And the Drug uptake (Plasma [38])?
**A.** The Drug uptake was 0.4%.

**Q.** What about the Drug uptake [39] of the same molecule?
**A.** The Drug uptake was 0.89%.

**Q.** What about the Drug uptake (Plasma [40]) of the same molecule?
**A.** The Drug uptake was 8%.

**Q.** And the Drug uptake [41]?
**A.** The Drug uptake was 6.43%.

**Q.** What about the Drug uptake [42] of the same molecule?
**A.** Its Drug uptake is 0.04%.

**Q.** What about the Drug uptake (Plasma [43]) of the same molecule?
**A.** The Drug uptake was less than 0.05%.

**Q.** What about the dose excreted at 48 h [44] of the same molecule?
**A.** The dose excreted at 48 h was 95%.
